Here are results for 3 compounds from patent publication US20230321089A1, “COMBINATION OF CABOTEGRAVIR AND LEVONORGESTREL” (ViiV Healthcare Company, priority 2020, published 2023).

In data set [1] the test system is HIV-1 strains. The conditions noted are these: broad range of HIV-1 strains; cited from earlier work.
Details of data set [2]: species or system male Sprague Dawley rats. The conditions noted are these: rat, in vivo. On the procedure: To prepare the combination product, LNG and LNG-b suspensions were added to Cabotegravir suspensions at 500 mg/mL to achieve a final Cabotegravir concentration of approximately 200 mg/mL and a final LNG and LNGb concentration of […], using a solution of 2.0% Mannitol in water to adjust the final concentrations to target. Concentrations of P338 and PEG3350 were at 4.5%. The resulting suspensions were flushed with nitrogen, stoppered (FM457 stopper), and sealed. The suspensions were terminally sterilized by gamma irradiation at a minimum dose of 25 kGy.
The pharmacokinetics of co-suspensions of Cabotegravir and LNG/LNG-b, prepared as described above, were evaluated in male Sprague Dawley rats. The formulations that were tested included: • i. 200 mg/mL Cabotegravir and 40 mg/mL LNG—0.2 microns • ii. 200 mg/mL Cabotegravir 40 mg/mL LNG—1 micron • iii. 200 mg/mL Cabotegravir and 40 mg/mL LNGb—0.2 microns • iv. 200 mg/mL Cabotegravir 40 mg/mL LNGb—1 micron
Rats were administered co-suspensions either intramuscularly or subcutaneously at target doses of 10 mg/kg Cabotegravir and […] LNG or LNGb. […] FIG. 2 is a comparison of Levonorgestrel blood concentration pharmacokinetic profiles after intramuscular vs. subcutaneous administration. The average particle size of LNG for these formulations was 0.2 microns in diameter. […] Furthermore, FIG. 3 is a comparison of LNG and LNG-b co-formulated with Cab.

For the compound `C[C@H]1CO[C@@H]2Cn3cc(C(=O)NCc4ccc(F)cc4F)c(=O)c(O)c3C(=O)N12` [Cabotegravir, N-((2,4-Difluorophenyl)methyl)-6-hydroxy-3-methyl-5,7-dioxo-2,3,5,7,11,11a hexahydro(1,3)oxazolo(3,2-a)pyrido(1,2-d)pyrazine-8-carboxamide], the potency entry in data set [1] was “subnanomolar”.

As to `C#C[C@]1(O)CC[C@H]2[C@@H]3CCC4=CC(=O)CC[C@@H]4[C@H]3CC[C@@]21CC` [LNG, Levonorgestrel], the “Levonorgestrel blood concentration pharmacokinetic profile: intramuscular vs. subcutaneous administration” value in data set [2] was “does not appear to be a significant impact”.

Take `C#C[C@]1(OC(=O)CCC)CC[C@H]2[C@@H]3CCC4=CC(=O)CC[C@@H]4[C@H]3CC[C@@]21CC` [LNGb, Levonorgestrel-butanoate]: in data set [2] (sc), the “Cmax compared with LNG” value is reported as “lower” and the “apparent half-life compared with LNG” value was “slightly longer”.
